Source: patent publication US11364211B2, “Methods for selecting phosphatase selective and non-selective phosphatase inhibitors” (MEDICAL RESEARCH COUNCIL, priority 2015, dated 2022)

Tests used:
[1] = biological target: T1, PPP1R15B-PP1 complex (Homo sapiens, UniProt Q5SWA1); test: SPR steady-state binding to R15B-PP1c holophosphatase on streptavidin chip; conditions: for Kd: SPR, steady-state affinity
T1 construct: 340-698 of PPP1R15B were His-tagged and cloned into pMAL-c5x; made in house; host or cells: R15B fragment: E. coli BL21-Gold; BAP-PP1γ: Sf9 insect cells (baculovirus)
Protocol: (§1) The streptavidin coated surface was activated by 1 min injection with a solution of 50 mM NaOH and 1 M NaCl. Biotin-PP1 was diluted in the running buffer (50 mM Tris pH 7.5, 100 mM NaCl, 0.1 mM EGTA, 1 mM MnCl2, 0.05% Tween 20) and injected at approximately 300 nM concentration directly to streptavidin coated surface for 100 sec or to reach immobilization level of biotin-PP1 corresponding to ˜7000 RU. A blank immobilization was performed for one of the SA sensor chip surface to use as a reference.
(§2) With minor deviations, the same procedure and conditions were used in all binding experiments. Small molecules were stored as 50 mM stock solutions in 100% DMSO. Prior to determining binding constants, serial dilutions of either 12 or 8 concentrations of the compounds were prepared in the running buffer in a 96-well plate. […] Then, without regenerating the surface, the compound dilution series was injected onto the surface of the chip Sensorgrams were analyzed using the Biacore T200 evaluation software and the binding constants determined based on a steady-state model. Kinetic experiments are carried out using different concentrations of the compound and their respective equilibrium binding levels determined.
(§3) Surface Plasmon Resonance (SPR) was used to measure the binding affinity of compounds to the PPP1R15A/B-PP1 phosphatase complex. Biotin acceptor peptide (BAP) was fused to the N-terminus of PP1γ, which enables the biotinylation of the BAP-tagged protein in Sf9 insect cells. After purification the BAP-PP1γ protein was captured on a streptavidin sensor chip (SA-chip, GE healthcare) to a response level of ˜5.000 RU. Using controlled biotinylation enables orientated and uniform immobilization on the sensor chip surface. The PP1γ was then used to capture PPP1R15A/B and form a holophosphatase complex on the surface of the streptavidin chip. This complex can then be used to test binding of compounds. 10 μM PPP1R15A/B protein concentration was used to form the holophosphatase complex during a 80 s injection. […] After the concentration series (8 or 12 concentrations) is completed the surface is regenerated with 3 M NaCl and we can capture R15A/B again to form a fresh holophosphatase complex to measure a binding of another compound concentration series. Analysing the level of equilibrium binding as a function of concentration gives interaction affinities or steady-state binding affinity (KD).
(§4) The streptavidin coated surface was activated by 1 minute injection with a solution of 50 mM NaOH and 1 M NaCl three times at a flow rate of 10 μl/min. bio-GBZ or bio-PP1c was diluted in the running buffer (50 mM Tris pH 7.5, 100 mM NaCl, 0.1 mM EGTA, 0.05% Tween 20, 0.1% DMSO) and injected at approximately 300 nM concentration at a flow rate of 10 μl/min directly to streptavidin coated surface to reach immobilization level of bio-GBZ or bio-PP1c corresponding to ˜200 and 6000 RU, respectively. A blank immobilization was performed for one of the SA sensor chip surface to use as a reference.
With minor deviations, the same procedure and conditions were used in all binding experiments. Small molecules were stored as 50 mM stock solutions in 100% DMSO. Prior to determining binding constants, serial dilutions of either 12 or 8 concentrations of the compounds were prepared in the running buffer in a 96-well plate. […] This was followed by 1 minute stabilization period, to wash off any unspecific binding. Then, without regenerating the surface, the compound dilution series was injected onto the surface of the chip at a flow rate of 30 μl/min for 1 minute, followed by 2 minutes dissociation time. After each dilution series the surface was regenerated using 3 M NaCl for 90 seconds. […] In order to be able to correct for small variations in DMSO concentration between samples, eight solvent samples ranging from 0.06 to 8% DMSO were injected every 50th cycle. The flow cell temperature was 10° C.

[2] = biological target: T2, PPP1R15A-PP1 complex (Homo sapiens, UniProt O75807); test: SPR steady-state binding to R15A-PP1c holophosphatase on streptavidin chip; conditions: steady-state affinity
T2 construct: the cDNAs encoding amino acids 325-636 of PPP1R15A; made in house; host or cells: R15A fragment: E. coli BL21-Gold; BAP-PP1γ: Sf9 insect cells (baculovirus)
Protocol: as §1, §2, §3, §4
(§5) With minor deviations, the same procedure and conditions were used in all binding experiments. Small molecules were stored as 50 mM stock solutions in 100% DMSO. Prior to determining binding constants, serial dilutions of either 12 or 8 concentrations of the compounds were prepared in the running buffer in a 96-well plate. […] This was followed by 1 minute stabilization period, to wash off any unspecific binding. […]

[3] = biological target: T3, PP1c (Homo sapiens, UniProt P36873); test: SPR binding to PP1c alone immobilized on chip; conditions: PP1c alone, read-out: affinity (KD) for PP1
Protocol: as §4
as §5, with “binding. Then, without regenerating the surface, the compound dilution series was injected onto the surface of the chip at a flow rate of 30 μl/min for 1 minute, followed by 2 minutes dissociation time.” for “binding.”
Kinetic experiments are carried out using different concentrations of the compound and their respective equilibrium binding levels determined.

[4] = biological target: T3, PP1c; test: PP1c catalytic activity assay (EnzChek); assay type: biochemical; conditions: purified PP1c 30 nM, 30 minutes at 4° C.
Protocol: Residual activity of PP1c was then measured using the EnzChek Phosphatase Assay Kit (Thermo Fisher Scientific) according to the supplier's instructions.

T2 sequence (O75807 325-636): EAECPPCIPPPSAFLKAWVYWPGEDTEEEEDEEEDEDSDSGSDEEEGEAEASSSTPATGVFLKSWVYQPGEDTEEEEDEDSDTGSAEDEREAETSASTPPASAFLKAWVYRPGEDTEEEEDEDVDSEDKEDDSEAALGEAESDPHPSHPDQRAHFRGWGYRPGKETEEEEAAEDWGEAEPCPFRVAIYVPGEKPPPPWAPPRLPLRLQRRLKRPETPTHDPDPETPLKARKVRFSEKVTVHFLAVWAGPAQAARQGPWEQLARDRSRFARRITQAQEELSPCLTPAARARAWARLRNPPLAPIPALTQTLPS
T2 sequence (P36873 whole entry partner, the tested form may be a part): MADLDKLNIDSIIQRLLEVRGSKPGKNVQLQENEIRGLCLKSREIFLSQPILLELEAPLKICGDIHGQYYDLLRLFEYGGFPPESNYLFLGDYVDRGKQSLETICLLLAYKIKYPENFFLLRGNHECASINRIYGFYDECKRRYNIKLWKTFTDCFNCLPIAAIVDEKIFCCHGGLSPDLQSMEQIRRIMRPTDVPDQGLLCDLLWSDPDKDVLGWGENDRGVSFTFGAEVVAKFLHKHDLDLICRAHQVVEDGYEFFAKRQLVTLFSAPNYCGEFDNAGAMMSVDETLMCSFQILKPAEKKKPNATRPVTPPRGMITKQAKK
T1 sequence (Q5SWA1 340-698): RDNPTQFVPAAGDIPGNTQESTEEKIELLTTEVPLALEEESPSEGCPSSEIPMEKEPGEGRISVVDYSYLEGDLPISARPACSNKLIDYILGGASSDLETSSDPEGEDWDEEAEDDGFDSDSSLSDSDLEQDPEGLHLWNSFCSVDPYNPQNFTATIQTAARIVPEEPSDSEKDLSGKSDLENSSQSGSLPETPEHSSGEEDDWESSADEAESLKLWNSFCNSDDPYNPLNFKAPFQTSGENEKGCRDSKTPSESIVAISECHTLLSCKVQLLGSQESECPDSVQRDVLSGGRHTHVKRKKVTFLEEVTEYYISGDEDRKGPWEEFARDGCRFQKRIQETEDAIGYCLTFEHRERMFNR
T1 sequence (P36873 whole entry partner, the tested form may be a part): as the sequence (P36873 whole entry partner, the tested form may be a part) above
T3 sequence (P36873 whole entry): as the sequence (P36873 whole entry partner, the tested form may be a part) above

| SMILES | Kd [1] [µM] | Kd [2] [µM] | Kd [3] [µM] | inhibition of PP1c in enzymatic assay [4] | difference in affinities between PPP1R15A-PP1 and PPP1R15B-PP1 ([1]; from SPR KD values) |
| --- | --- | --- | --- | --- | --- |
| O=C(/C=C/c1ccccc1)NC(NC(=S)Nc1cccc2cccnc12)C(Cl)(Cl)Cl (centres unmarked) [Salubrinal] | > 20 | > 20 | > 20 | – | – |
| COC[C@@H]([C@H](O)[C@H](O)C(=O)NCC[C@H](C)c1nc(/C=C/C[C@@H]2O[C@]3(C[C@@H](O)[C@@H]2C)O[C@H]([C@H](C[C@H](O)[C@H](C)[C@H](O)[C@H](C)/C=C(C)/C(C)=C/C=C/C(C)=C\C#N)OC)[C@H](OP(=O)(O)O)C3(C)C)co1)N(C)C [calyculin A, reference compound] | – | – | – | a catalytic inhibitor of PP1 | – |
| N=C(N)N/N=C/c1ccc(F)cc1Cl [Example 2, (E)-2-(2-chloro-4-fluorobenzylidene)hydrazine-1-carboximidamide] | 0.143 | 5 | – | – | greater than 30 fold |
| N=C(N)N/N=C/c1cc(Cl)c(Cl)c(Cl)c1 [Example 3, (E)-2-(3,4,5-trichlorobenzylidene)hydrazine-1-carboximidamide] | – | 3.93 | – | – | – |
